Experimental data reported in patent US20250151724A1, “Liquid Soil Treatments Containing Choline” (Harrell's, LLC, priority 2023, published 2025).

Test system: creeping bentgrass putting greens
Assay: Experiment No. 5: putting green field trial of Fleet100 and choline alone or in combination
Format: in vivo
Settings: Fleet100 5 fl oz, choline 0.25 oz/1000 ft^2 monthly
Experimental: There were 4 treatments with 4 replications. Plot size was 5×6 ft. Regular mowing and irrigation were performed. A randomized block design was used. Fleet® 100 was supplied by […]) and choline from Sigma-Aldrich, Inc. (St. Louis, MO) were used in this study. The treatments were as follows: • 1. […] N/1,000 ft^2 biweekly • 3. […] N/1,000 ft^2 biweekly • 4. […] The trial lasted for 12 weeks and a total of 3 treatment applications. […] Leaf chlorophyll content. Leaf samples were collected biweekly and chlorophyll content was determined using the spectrophotometer method described by Zhang et al. (2005). • e. Volumetric water content. […] At day 9 of the dry down cycles, leaf samples were collected and leaf proline content was analyzed. Irrigation was resumed after day 9 of each dry down cycle. […] Leaf proline content. Leaf samples were collected at the end of each dry down cycle and proline content was measured by using the method described by Wu et al. (2017). • g. Root characteristics, biomass, and viability. […] The root length, root diameter, root surface area, and root volume were analyzed using WinRHIZO technology. Briefly, after fine cleaning of each root sample, the sample from each plot was divided into multiple subsamples. Each subsample was scanned using WinRHIZO and all root morphological parameters were generated and analyzed. In addition, root viability was analyzed using TTC method (Zhang et al., 2017). Root viability is a good indicator of root function.

C[N+](C)(C)CCO.[Cl-] [Choline, choline chloride]
Chlorophyll Content (day 0): 2.45a mg/g fresh weight
Leaf color (1-9, 9 = dark green) (day 0): 7.5a
Photochemical Efficiency (Fv/Fm) (day 0): 0.720a
Turf quality (1-9, 9 = best) (day 0): 7.5a
Chlorophyll Content (day 14): 2.90a mg/g fresh weight
Leaf color (1-9, 9 = dark green) (day 14): 7.6ab
Photochemical Efficiency (Fv/Fm) (day 14): 0.696a
Turf quality (1-9, 9 = best) (day 14): 7.4a
Leaf color (1-9, 9 = dark green) (day 22): 7.4a
Photochemical Efficiency (Fv/Fm) (day 22): 0.664a
Turf quality (1-9, 9 = best) (day 22): 6.8ab
Proline (day 22 (end of 1st dry-down cycle)): 467.0a ug/g FW
Chlorophyll Content (day 28): 3.85a mg/g fresh weight
Leaf color (1-9, 9 = dark green) (day 28): 7.8a
Photochemical Efficiency (Fv/Fm) (day 28): 0.761a
Turf quality (1-9, 9 = best) (day 28): 7.6b
Photochemical Efficiency (Fv/Fm) (day 40): 0.714a
Chlorophyll Content (day 42): 3.03a mg/g fresh weight
Leaf color (1-9, 9 = dark green) (day 42): 6.9ab
Photochemical Efficiency (Fv/Fm) (day 42): 0.634a
Turf quality (1-9, 9 = best) (day 42): 6.5b
Proline (day 42 (end of 2nd dry-down cycle)): 538.0a ug/g FW
Chlorophyll Content (day 56): 3.46a mg/g fresh weight
Leaf color (1-9, 9 = dark green) (day 56): 7.7ab
Photochemical Efficiency (Fv/Fm) (day 56): 0.729a
Turf quality (1-9, 9 = best) (day 56): 7.4b
Chlorophyll Content (day 70): 2.79b mg/g fresh weight
Leaf color (1-9, 9 = dark green) (day 70): 7.4ab
Photochemical Efficiency (Fv/Fm) (day 70): 0.733ab
Turf quality (1-9, 9 = best) (day 70): 7.2ab
Chlorophyll Content (day 84): 2.57a mg/g fresh weight
Leaf color (1-9, 9 = dark green) (day 84): 7.4b
Photochemical Efficiency (Fv/Fm) (day 84): 0.733ab
Turf quality (1-9, 9 = best) (day 84): 7.3b
Root Biomass (end of trial): 2.14ab mg/cm^3
Root Diameter (end of trial): 0.187b mm
Root Length (end of trial): 118.2a cm/cm^3
Root SA (end of trial): 7.02ab cm^2/cm^3
Root Volume (end of trial): 33.4ab cm^3/dm^3
Root Viability (end of trial, TTC method): 0.49a A490/g FW
